Results reported in patent publication US12195482B1 (Arcus Biosciences, Inc., priority 2022, dated 2025).

Tests used:
[1] = target: T1, recombinant human MER (Homo sapiens, UniProt Q12866); test: Biochemical potency, HTRF KinEASE-TK kinase assay; details: 1 nM MER, 700 μM ATP
T1 construct: purchased Invitrogen
T1 sequence (Q12866 21-999): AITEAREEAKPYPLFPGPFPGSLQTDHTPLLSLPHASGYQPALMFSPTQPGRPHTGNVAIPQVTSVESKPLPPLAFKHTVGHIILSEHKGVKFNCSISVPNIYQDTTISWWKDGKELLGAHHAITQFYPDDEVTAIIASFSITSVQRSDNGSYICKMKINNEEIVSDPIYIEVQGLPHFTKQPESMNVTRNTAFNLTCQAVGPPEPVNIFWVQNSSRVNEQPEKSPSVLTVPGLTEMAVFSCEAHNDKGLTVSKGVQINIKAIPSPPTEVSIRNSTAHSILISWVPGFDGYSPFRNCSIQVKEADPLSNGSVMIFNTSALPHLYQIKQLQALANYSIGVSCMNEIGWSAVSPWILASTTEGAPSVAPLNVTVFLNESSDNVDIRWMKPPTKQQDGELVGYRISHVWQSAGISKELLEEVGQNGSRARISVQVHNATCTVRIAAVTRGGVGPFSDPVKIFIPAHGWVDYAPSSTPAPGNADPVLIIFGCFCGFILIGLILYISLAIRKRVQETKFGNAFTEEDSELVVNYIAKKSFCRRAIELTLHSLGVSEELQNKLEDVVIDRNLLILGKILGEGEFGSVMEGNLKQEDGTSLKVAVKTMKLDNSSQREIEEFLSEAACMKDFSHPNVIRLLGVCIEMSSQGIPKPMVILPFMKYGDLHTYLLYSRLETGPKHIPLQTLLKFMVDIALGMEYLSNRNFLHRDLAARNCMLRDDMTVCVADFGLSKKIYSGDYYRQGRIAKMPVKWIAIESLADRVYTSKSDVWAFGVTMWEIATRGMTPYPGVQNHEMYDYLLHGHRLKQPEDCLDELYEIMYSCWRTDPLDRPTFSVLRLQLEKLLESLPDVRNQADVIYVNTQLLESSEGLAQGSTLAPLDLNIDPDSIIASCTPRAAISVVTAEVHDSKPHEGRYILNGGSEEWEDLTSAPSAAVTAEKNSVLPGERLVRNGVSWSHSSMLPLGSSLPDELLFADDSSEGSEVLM
In short: (§1)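 Steps: compound plus kinase, 1 h RT; add ATP (700 µM final) and biotin-TK substrate (800 nM final); run 2 h RT; stop into streptavidin-XL665/anti-phospho cryptate detection mix, 1 h; read 665/620. AXL at 5 nM, TYRO3 and MER at 1 nM.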

[2] = target: T2, recombinant human TYRO3 (Homo sapiens, UniProt Q06418); test: Biochemical potency, HTRF KinEASE-TK kinase assay; details: 1 nM TYRO3, 700 μM ATP
T2 construct: purchased Invitrogen
T2 sequence (Q06418 41-890): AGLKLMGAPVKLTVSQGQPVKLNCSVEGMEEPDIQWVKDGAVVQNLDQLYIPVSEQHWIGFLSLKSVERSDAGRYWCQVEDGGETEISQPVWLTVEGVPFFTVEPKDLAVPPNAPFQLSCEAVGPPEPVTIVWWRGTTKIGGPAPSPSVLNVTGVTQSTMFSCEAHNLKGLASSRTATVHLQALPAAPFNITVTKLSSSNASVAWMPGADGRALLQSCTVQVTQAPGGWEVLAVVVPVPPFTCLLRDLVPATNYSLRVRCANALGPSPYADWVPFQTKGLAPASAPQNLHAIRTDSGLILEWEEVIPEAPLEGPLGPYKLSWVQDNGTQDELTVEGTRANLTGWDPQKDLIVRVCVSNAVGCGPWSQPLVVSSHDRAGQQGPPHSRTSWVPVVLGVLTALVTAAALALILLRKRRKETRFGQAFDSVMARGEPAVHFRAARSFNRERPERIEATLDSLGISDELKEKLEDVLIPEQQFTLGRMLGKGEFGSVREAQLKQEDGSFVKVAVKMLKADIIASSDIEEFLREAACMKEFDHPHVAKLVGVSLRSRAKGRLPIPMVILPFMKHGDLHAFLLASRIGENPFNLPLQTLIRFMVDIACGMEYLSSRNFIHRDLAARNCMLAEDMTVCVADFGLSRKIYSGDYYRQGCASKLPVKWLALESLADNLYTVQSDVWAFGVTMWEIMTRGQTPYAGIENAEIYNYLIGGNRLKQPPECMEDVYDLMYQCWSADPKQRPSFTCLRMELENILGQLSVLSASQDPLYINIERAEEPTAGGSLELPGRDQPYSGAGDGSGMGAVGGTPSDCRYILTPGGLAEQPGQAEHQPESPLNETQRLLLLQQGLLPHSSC
In short: as §1

Compound	IC50 [1] [nM]	IC50 [2] [nM]
CC(C)(O)c1cccnc1-c1ccc(-c2n[nH]c3ncc(-c4ccc5c(c4)CC[C@@H](N4C6COCC4C6)CC5)cc23)cc1 [Example 10, 2-[2-(4-{5-[(7S)-7-{3-Oxa-6-azabicyclo[3.1.1]heptan-6-yl}-6,7,8,9-tetrahydro-5H-benzo[7]annulen-2-yl]-1H-pyrazolo[3,4-b]pyridin-3-yl}phenyl)pyridin-3-yl]propan-2-ol]	100 to 1000	< 100
Cc1ccnc(-c2ccc(-c3n[nH]c4ncc(-c5ccc6c(c5)CC[C@@H](N5C7COCC5C7)CC6)cc34)cc2)c1 [Example 117, 6-[(7S)-2-{3-[4-(4-Methylpyridin-2-yl)phenyl]-1H-pyrazolo[3,4-b]pyridin-5-yl}-6,7,8,9-tetrahydro-5H-benzo[7]annulen-7-yl]-3-oxa-6-azabicyclo[3.1.1]heptane]	> 1000	100 to 1000
FC(F)(F)Oc1cccnc1-c1ccc(-c2c[nH]c3ncc(-c4ccc5c(c4)CC[C@@H](N4C6COCC4C6)CC5)cc23)cc1 [Example 103, 6-[(7S)-2-(3-{4-[3-(Trifluoromethoxy)pyridin-2-yl]phenyl}-1H-pyrrolo[2,3-b]pyridin-5-yl)-6,7,8,9-tetrahydro-5H-benzo[7]annulen-7-yl]-3-oxa-6-azabicyclo[3.1.1]heptane]	> 1000	> 1000
c1cnc(-c2ccc(-c3n[nH]c4ncc(-c5ccc6c(c5)CC[C@@H](N5C7COCC5C7)CC6)cc34)cc2)c(O[C@@H]2CCOC2)c1 [Example 104, 6-[(7S)-2-[3-(4-{3-[(3R)—Oxolan-3-yloxy]pyridin-2-yl}phenyl)-1H-pyrazolo[3,4-b]pyridin-5-yl]-6,7,8,9-tetrahydro-5H-benzo[7]annulen-7-yl]-3-oxa-6-azabicyclo[3.1.1]heptane]	100 to 1000	100 to 1000
CC(C)(O)c1ccccc1-c1ccc(-c2n[nH]c3ncc(-c4ccc5c(c4)CC[C@@H](N4C6COCC4C6)CC5)cc23)cn1 [Example 113, 2-[2-(5-{5-[(7S)-7-{3-Oxa-6-azabicyclo[3.1.1]heptan-6-yl}-6,7,8,9-tetrahydro-5H-benzo[7]annulen-2-yl]-1H-pyrazolo[3,4-b]pyridin-3-yl}pyridin-2-yl)phenyl]propan-2-ol]	100 to 1000	100 to 1000
OC1(c2cccnc2-c2ccc(-c3c[nH]c4ncc(-c5ccc6c(c5)CC[C@@H](N5C7COCC5C7)CC6)cc34)cc2)CCC1 [Example 22, 1-[2-[4-[5-[(7S)-7-(3-Oxa-6-azabicyclo[3.1.1]heptan-6-yl)-6,7,8,9-tetrahydro-5H-benzo[7]annulen-3-yl]-1H-pyrrolo[2,3-b]pyridin-3-yl]phenyl]pyridin-3-yl]cyclobutan-1-ol]	< 100	< 100
CC(C)(O)c1cccnc1-c1ccc(-c2c[nH]c3ncc(-c4ccc5c(c4)CC[C@@H](N4C6COCC4C6)CC5)cc23)cc1 [Example 95, 2-[2-(4-{5-[(7S)-7-{3-Oxa-6-azabicyclo[3.1.1]heptan-6-yl}-6,7,8,9-tetrahydro-5H-benzo[7]annulen-2-yl]-1H-pyrrolo[2,3-b]pyridin-3-yl}phenyl)pyridin-3-yl]propan-2-ol]	< 100	< 100
O=C(c1cccnc1-c1ccc(-c2n[nH]c3ncc(-c4ccc5c(c4)CC[C@@H](N4C6COCC4C6)CC5)cc23)cc1)N1CCCC1 [Example 4, 6-[(7S)-2-(3-{4-[3-(Pyrrolidine-1-carbonyl)pyridin-2-yl]phenyl}-1H-pyrazolo[3,4-b]pyridin-5-yl)-6,7,8,9-tetrahydro-5H-benzo[7]annulen-7-yl]-3-oxa-6-azabicyclo[3.1.1]heptane]	100 to 1000	100 to 1000
Cc1ncc(C)c(-c2ccc(-c3c[nH]c4ncc(-c5ccc6c(c5)CC[C@@H](N5C7COCC5C7)CC6)cc34)cc2)n1 [Example 123, 6-[(7S)-2-{3-[4-(2,5-Dimethylpyrimidin-4-yl)phenyl]-1H-pyrrolo[2,3-b]pyridin-5-yl}-6,7,8,9-tetrahydro-5H-benzo[7]annulen-7-yl]-3-oxa-6-azabicyclo[3.1.1]heptane]	< 100	< 100

Other lines, results leading:

IC50 [1] [nM]	IC50 [2] [nM]	Compound
< 100	< 100	Cc1cccnc1-c1ccc(-c2n[nH]c3ncc(-c4ccc5c(c4)CC[C@@H](N4C[C@@H]6C[C@H]4CO6)CC5)cc23)cc1 [Example 130, (1S,4S)-5-[(7S)-2-{3-[4-(3-Methylpyridin-2-yl)phenyl]-1H-pyrazolo[3,4-b]pyridin-5-yl}-6,7,8,9-tetrahydro-5H-benzo[7]annulen-7-yl]-2-oxa-5-azabicyclo[2.2.1]heptane]
< 100	< 100	C[C@H]1COC(=O)N1c1cccnc1-c1ccc(-c2n[nH]c3ncc(-c4ccc5c(c4)CC[C@@H](N4C6COCC4C6)CC5)cc23)cc1 [Example 125, (4S)-4-Methyl-3-[2-(4-{5-[(7S)-7-{3-oxa-6-azabicyclo[3.1.1]heptan-6-yl}-6,7,8,9-tetrahydro-5H-benzo[7]annulen-2-yl]-1H-pyrazolo[3,4-b]pyridin-3-yl}phenyl)pyridin-3-yl]-1,3-oxazolidin-2-one]
100 to 1000	< 100	CN(C(=O)C1CC1)c1cccnc1-c1ccc(-c2n[nH]c3ncc(-c4ccc5c(c4)CC[C@@H](N4C6COCC4C6)CC5)cc23)cc1 [Example 128, N-Methyl-N-[2-(4-{5-[(7S)-7-{3-oxa-6-azabicyclo[3.1.1]heptan-6-yl}-6,7,8,9-tetrahydro-5H-benzo[7]annulen-2-yl]-1H-pyrazolo[3,4-b]pyridin-3-yl}phenyl)pyridin-3-yl]cyclopropanecarboxamide]
100 to 1000	< 100	COCCOc1cccnc1-c1ccc(-c2n[nH]c3ncc(-c4ccc5c(c4)CC[C@@H](N4C6COCC4C6)CC5)cc23)cc1 [Example 180, 6-[(7S)-2-(3-{4-[3-(2-Methoxyethoxy)pyridin-2-yl]phenyl}-1H-pyrazolo[3,4-b]pyridin-5-yl)-6,7,8,9-tetrahydro-5H-benzo[7]annulen-7-yl]-3-oxa-6-azabicyclo[3.1.1]heptane]
100 to 1000	< 100	COc1cccnc1-c1ccc(-c2n[nH]c3ncc(-c4ccc5c(c4)CC[C@@H](N4C6COCC4C6)CC5)cc23)cc1 [Example 166, 6-[(7S)-2-{3-[4-(3-Methoxypyridin-2-yl)phenyl]-1H-pyrazolo[3,4-b]pyridin-5-yl}-6,7,8,9-tetrahydro-5H-benzo[7]annulen-7-yl]-3-oxa-6-azabicyclo[3.1.1]heptane]
< 100	< 100	COC[C@H]1CCN([C@H]2CCc3ccc(-c4cnc5[nH]nc(-c6ccc(-c7ncccc7C)cc6)c5c4)cc3CC2)C1 [Example 132, 2-(4-{5-[(7S)-7-[(3S)-3-(Methoxymethyl)pyrrolidin-1-yl]-6,7,8,9-tetrahydro-5H-benzo[7]annulen-2-yl]-1H-pyrazolo[3,4-b]pyridin-3-yl}phenyl)-3-methylpyridine]
100 to 1000	< 100	Cc1cccnc1-c1ccc(-c2c[nH]c3ncc(-c4ccc5c(c4)CC[C@@H](N4C[C@@H]6C[C@H]4CO6)CC5)cc23)cc1 [Example 187, (4S)-5-[(7S)-2-{3-[4-(3-Methylpyridin-2-yl)phenyl]-1H-pyrrolo[2,3-b]pyridin-5-yl}-6,7,8,9-tetrahydro-5H-benzo[7]annulen-7-yl]-2-oxa-5-azabicyclo[2.2.1]heptane]
